Laboratory results reported in US4610987A, “Imidazoquinazolin-2-one compounds” (Daiichi Seiyaku Co., Ltd., priority 1983, dated 1986).
Counter-ions that a name gives are not always drawn.

Tested on: human heart PDE III
Experiment: Inhibitory activity on phosphodiesterase, heart PDE III (cAMP)
Assay type: biochemical
Details: Table 6
Procedure: (§1) Phosphodiesterase fractions were separated from 105,000×g of supernatant fractions from human platelets and heart by DEAE-cellulose column chromatography using the method of Timothy et al. (Arch. Biochem. Biophy. 196, 465-474, 1979) with minor modifications. These fractions were designated PDE I, PDE II and PDE III, depending upon the order of their emergence from the DEAE-cellulose column.
(§2) Phosphodiesterase activity was measured by the method of Thompson and Appleman (Biochemistry 10, 311-316, 1971) with slight modifications. The reaction mixture consisted of 25 mM of Tris-HCl (pH 7.4), 5 mM of MgCl2, 1 μM of [^3 H]-cAMP or cGMP (approximate 20,000 cpm), various concentrations of a test compound and the enzyme preparation. After incubation for 10 minutes at 30° C., the reaction was terminated by boiling the reaction mixture for 45 seconds. 5'-[^3 H]-AMP or GMP formed by phosphodiesterase was converted to [^3 H]adenosine or [^3 H]quanosine by snake venom (Botherop Atrox) containing 5'-nucleotidase and the product isolated by a cation exchange resin was counted in a liquid scintillation counter.

SMILES | activity on heart PDE (in words)
CC1CCCCN1c1ccc2c(c1)CN1CC(=O)NC1=N2 (stereo not drawn) [Example 5] | strong activity on heart PDE
CN(C)c1ccc2c(c1Cl)CN1CC(=O)NC1=N2 [Example 22] | strong activity on heart PDE

Same assay, conditions: cAMP substrate

SMILES | IC50 [µM]
O=C1CN2Cc3cc(N4CCCCC4)ccc3N=C2N1 [7-Piperidino Compound, reference compound] | 0.8
Nc1cc(-c2ccncc2)c[nH]c1=O [Amrinone, 5Amino-(3,4bipyridin)-6(1H)--one, reference compound] | 34
Cl.O=C1CN2Cc3c(sc4c3CCCC4)N=C2N1 [DH-6471, reference compound] | 0.46
CC1CCCCN1c1ccc2c(c1)CN1CC(=O)NC1=N2 (stereo not drawn) [Example 5] | 0.8
CN(C)c1ccc2c(c1Cl)CN1CC(=O)NC1=N2 [Example 22] | 0.18

Tested on: human platelet PDE II
Experiment: Inhibitory activity on phosphodiesterase, platelet PDE II (cGMP)
Assay type: biochemical
Details: cGMP substrate
Procedure: as §1, §2

SMILES | IC50 [µM]
O=C1CN2Cc3cc(N4CCCCC4)ccc3N=C2N1 [7-Piperidino Compound, reference compound] | 54
Cl.O=C1CN2Cc3c(sc4c3CCCC4)N=C2N1 [DH-6471, reference compound] | > 100
CC1CCCCN1c1ccc2c(c1)CN1CC(=O)NC1=N2 (stereo not drawn) [Example 5] | 57
CN(C)c1ccc2c(c1Cl)CN1CC(=O)NC1=N2 [Example 22] | 2.9

Tested on: platelet aggregation (rat platelet-rich-plasma)
Experiment: Test of Platelet Aggregation Inhibition (in vitro), rat PRP
Assay type: cell-based, Wistar Imamichi rat
Details: not given
Procedure: The test was performed as follows in accordance with the method of Ashida et al, Thrombosis and Haemostasis, Vol. 40, 542 (1979).
Blood was taken by puncture from the heart of a Wistar Imamichi rat under anesthesia with pentobarbital into a syringe containing 1/10 volume of a 3.13% aqueous solution of sodium citrate dihydrate, and the citrated blood was centrifuged to obtain a platelet-rich-plasma (PRP). In the same manner, citrated blood was collected from the vein of a healthy human who had not taken aspirin or any other anti-inflammatory agent since before 10 days, followed by centrifugation to obtain PRP. 5 μl of each test compound was added to 0.445 ml of each of these PRP samples, and the system was warmed at 30° C. for 1 minute. 50 μl of an aggregation inducer (ADP or collagen) was then added thereto, and platelet aggregation was determined according to the method of Born, Nature, Vol. 194, 927 (1962).

SMILES | platelet aggregation inhibitory activity (in words)
CC1CCCCN1c1ccc2c(c1)CN1CC(=O)NC1=N2 (stereo not drawn) [Example 5] | strong platelet aggregation inhibitory activity
CN(C)c1ccc2c(c1Cl)CN1CC(=O)NC1=N2 [Example 22] | strong platelet aggregation inhibitory activity

Same assay, conditions: Platelet; in vitro; rat blood; ADP-induced; read-out: IC50, platelet aggregation inhibition in vitro, ADP

SMILES | IC50 [µM]
CN(C)c1cccc2c1CN1CC(=O)NC1=N2 [Example 2] | 2.7
CC1CCCCN1c1ccc2c(c1)CN1CC(=O)NC1=N2 (stereo not drawn) [Example 5] | 2
O=C1CN2Cc3c(ccc(N4CCCCC4)c3Cl)N=C2N1 [Example 9] | 7.9
O=C1CN2Cc3cc(N4CCOCC4)c(Cl)cc3N=C2N1 [Example 17] | 0.36
Cc1cc2c(cc1N1CCCCC1)CN1CC(=O)NC1=N2 [Example 18] | 5.4
CN(C)c1ccc2c(c1Cl)CN1CC(=O)NC1=N2 [Example 22] | 7
CCN(CC)c1ccc2c(c1Cl)CN1CC(=O)NC1=N2 [Example 23] | 5.6
O=C1CN2Cc3cc(N4CCCC4)ccc3N=C2N1 [Example 26, 7-pyrrolidino-1,2,3,5-tetrahydroimidazo[2,1-b]quinazolin-2-one dihydrochloride] | 2.6
O=C1CN2Cc3cc(N4CCOCC4)ccc3N=C2N1 [Example 28] | 5

Same assay, conditions: Platelet; in vitro; rat blood; collagen-induced; read-out: IC50, platelet aggregation inhibition in vitro, Collagen

SMILES | IC50 [µM]
CN(C)c1cccc2c1CN1CC(=O)NC1=N2 [Example 2] | 1.5
CC1CCCCN1c1ccc2c(c1)CN1CC(=O)NC1=N2 (stereo not drawn) [Example 5] | 1.7
O=C1CN2Cc3c(ccc(N4CCCCC4)c3Cl)N=C2N1 [Example 9] | 1.2
O=C1CN2Cc3cc(N4CCOCC4)c(Cl)cc3N=C2N1 [Example 17] | 0.1
Cc1cc2c(cc1N1CCCCC1)CN1CC(=O)NC1=N2 [Example 18] | 0.58
CN(C)c1ccc2c(c1Cl)CN1CC(=O)NC1=N2 [Example 22] | 1.2
CCN(CC)c1ccc2c(c1Cl)CN1CC(=O)NC1=N2 [Example 23] | 1.3
O=C1CN2Cc3cc(N4CCCC4)ccc3N=C2N1 [Example 26, 7-pyrrolidino-1,2,3,5-tetrahydroimidazo[2,1-b]quinazolin-2-one dihydrochloride] | 1.9
O=C1CN2Cc3cc(N4CCOCC4)ccc3N=C2N1 [Example 28] | 2

Target: human platelet PDE I (Homo sapiens, UniProt O76074)
Experiment: Inhibitory activity on phosphodiesterase, platelet PDE I (cGMP)
Assay type: biochemical
Details: cGMP substrate
Procedure: as §1, §2

SMILES | IC50 [µM]
O=C1CN2Cc3cc(N4CCCCC4)ccc3N=C2N1 [7-Piperidino Compound, reference compound] | 93
Nc1cc(-c2ccncc2)c[nH]c1=O [Amrinone, 5Amino-(3,4bipyridin)-6(1H)--one, reference compound] | > 100
Cl.O=C1CN2Cc3c(sc4c3CCCC4)N=C2N1 [DH-6471, reference compound] | > 100
CC1CCCCN1c1ccc2c(c1)CN1CC(=O)NC1=N2 (stereo not drawn) [Example 5] | 45
CN(C)c1ccc2c(c1Cl)CN1CC(=O)NC1=N2 [Example 22] | 1.6

Target: human heart PDE I
Experiment: Inhibitory activity on phosphodiesterase, heart PDE I (cGMP)
Assay type: biochemical
Details: cGMP substrate
Procedure: as §1, §2

SMILES | IC50 [µM]
O=C1CN2Cc3cc(N4CCCCC4)ccc3N=C2N1 [7-Piperidino Compound, reference compound] | > 100
Nc1cc(-c2ccncc2)c[nH]c1=O [Amrinone, 5Amino-(3,4bipyridin)-6(1H)--one, reference compound] | > 100
Cl.O=C1CN2Cc3c(sc4c3CCCC4)N=C2N1 [DH-6471, reference compound] | > 10
CC1CCCCN1c1ccc2c(c1)CN1CC(=O)NC1=N2 (stereo not drawn) [Example 5] | > 50
CN(C)c1ccc2c(c1Cl)CN1CC(=O)NC1=N2 [Example 22] | > 100

Tested on: not listed separately
Experiment: Solubility Test (water-solubility)
Details: not given

SMILES | water-solubility (in words)
CC1CCCCN1c1ccc2c(c1)CN1CC(=O)NC1=N2 (stereo not drawn) [Example 5] | water-soluble
CN(C)c1ccc2c(c1Cl)CN1CC(=O)NC1=N2 [Example 22] | water-soluble

Tested on: platelet aggregation
Experiment: Test of Platelet Aggregation Inhibition (ex vivo; i.v.)
Assay type: in vivo, Wistar Imamichi rat
Details: iv, 10 min, rat, i.v. 1.0 mg/Kg/min, 10 min, ADP, *P<0.05, **P<0.01, read-out: Percent Inhibition of platelet aggregation, ADP
Procedure: As test animals, 5 to 6 Wistar Imamichi rats (body weight: about 260 g) that had been allowed food and water ad libitum were used per group. The test compound was dissolved in a physiological saline solution and continuously injected over a period of 10 or 15 minutes to the rats under anesthesia with pentobarbital through the femoral vein. Immediately after completion of the administration, citrated blood was collected from the heart, and platelet aggregation was determined in the same manner as in the test in vitro in Test Example 2.

SMILES | inhibition at 1 mg/kg [%]
O=C1CN2Cc3ccc(N4CCOCC4)cc3N=C2N1 [Example 8] | 16.5
CN(C)c1ccc2c(c1Cl)CN1CC(=O)NC1=N2 [Example 22] | 23.5

Same assay, conditions: iv, 10 min, rat, i.v. 1.0 mg/Kg/min, 10 min, collagen, *P<0.05, **P<0.01, read-out: Percent Inhibition of platelet aggregation, Collagen

SMILES | inhibition at 1 mg/kg [%]
O=C1CN2Cc3ccc(N4CCOCC4)cc3N=C2N1 [Example 8] | 48.5
CN(C)c1ccc2c(c1Cl)CN1CC(=O)NC1=N2 [Example 22] | 100

Tested on: platelet aggregation
Experiment: Test of Platelet Aggregation Inhibition (ex vivo, p.o.)
Assay type: in vivo, Wistar Imamichi rat
Details: Platelet, po; ex vivo; rat; 10 mg/Kg p.o.; 1 hour; ADP; *P<0.05, **P<0.01, ***P<0.001; read-out: ex vivo % inhibition of platelet aggregation, ADP
Procedure: One hour later, citrated blood was taken from the heart, and platelet aggregation was determined in the same manner as described in the in vitro test. The inhibitory activity was compared with that of control and expressed in terms of percent inhibition.

SMILES | inhibition at 10 mg/kg [%]
O=C1CN2Cc3c(ccc(N4CCCCC4)c3Cl)N=C2N1 [Example 9] | 25
O=C1CN2Cc3cc(N4CCOCC4)c(Cl)cc3N=C2N1 [Example 17] | 47
CN(C)c1ccc2c(c1Cl)CN1CC(=O)NC1=N2 [Example 22] | 64
CCN(CC)c1ccc2c(c1Cl)CN1CC(=O)NC1=N2 [Example 23] | 25

Same assay, conditions: Platelet, po; ex vivo; rat; 10 mg/Kg p.o.; 1 hour; collagen; *P<0.05, **P<0.01, ***P<0.001; read-out: ex vivo % inhibition of platelet aggregation, Collagen

SMILES | inhibition at 10 mg/kg [%]
O=C1CN2Cc3c(ccc(N4CCCCC4)c3Cl)N=C2N1 [Example 9] | 32
O=C1CN2Cc3cc(N4CCOCC4)c(Cl)cc3N=C2N1 [Example 17] | 68
CN(C)c1ccc2c(c1Cl)CN1CC(=O)NC1=N2 [Example 22] | 86
CCN(CC)c1ccc2c(c1Cl)CN1CC(=O)NC1=N2 [Example 23] | 70

Target: human platelet PDE III (Homo sapiens, UniProt Q14432)
Sequence (Q14432 whole entry): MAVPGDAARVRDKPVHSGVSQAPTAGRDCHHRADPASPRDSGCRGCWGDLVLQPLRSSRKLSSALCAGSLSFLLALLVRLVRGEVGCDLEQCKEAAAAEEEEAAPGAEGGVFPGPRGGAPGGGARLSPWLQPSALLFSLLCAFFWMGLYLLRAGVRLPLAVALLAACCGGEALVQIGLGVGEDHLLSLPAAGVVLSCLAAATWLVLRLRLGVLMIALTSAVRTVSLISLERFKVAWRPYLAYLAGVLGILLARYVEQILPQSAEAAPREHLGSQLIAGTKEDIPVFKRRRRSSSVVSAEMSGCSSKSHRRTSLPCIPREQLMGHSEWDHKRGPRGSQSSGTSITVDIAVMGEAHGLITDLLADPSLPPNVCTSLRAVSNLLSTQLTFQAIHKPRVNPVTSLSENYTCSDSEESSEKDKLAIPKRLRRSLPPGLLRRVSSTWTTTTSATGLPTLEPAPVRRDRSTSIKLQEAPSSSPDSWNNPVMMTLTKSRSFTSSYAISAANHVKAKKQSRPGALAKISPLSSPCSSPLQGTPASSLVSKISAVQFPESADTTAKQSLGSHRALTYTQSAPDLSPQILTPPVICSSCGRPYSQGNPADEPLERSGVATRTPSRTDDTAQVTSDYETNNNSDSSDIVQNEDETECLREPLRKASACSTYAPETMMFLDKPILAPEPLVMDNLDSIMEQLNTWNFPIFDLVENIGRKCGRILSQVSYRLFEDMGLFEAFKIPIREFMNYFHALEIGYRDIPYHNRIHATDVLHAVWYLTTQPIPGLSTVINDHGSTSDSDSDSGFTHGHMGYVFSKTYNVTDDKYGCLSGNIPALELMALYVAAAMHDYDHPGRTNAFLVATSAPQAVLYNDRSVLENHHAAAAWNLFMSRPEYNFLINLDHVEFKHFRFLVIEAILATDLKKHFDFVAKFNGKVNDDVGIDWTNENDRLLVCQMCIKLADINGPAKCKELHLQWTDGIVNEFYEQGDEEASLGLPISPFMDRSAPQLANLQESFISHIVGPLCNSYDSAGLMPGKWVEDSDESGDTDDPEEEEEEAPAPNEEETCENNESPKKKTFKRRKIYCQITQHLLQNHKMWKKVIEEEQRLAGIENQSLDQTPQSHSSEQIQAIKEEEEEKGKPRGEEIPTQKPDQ
Experiment: biochemical
Details: Heart/Platelet
Procedure: as §1, §2

SMILES | IC50 Ratio (PDE II) Heart/Platelet
O=C1CN2Cc3cc(N4CCCCC4)ccc3N=C2N1 [7-Piperidino Compound, reference compound] | 5.3
Cl.O=C1CN2Cc3c(sc4c3CCCC4)N=C2N1 [DH-6471, reference compound] | 7.1
CC1CCCCN1c1ccc2c(c1)CN1CC(=O)NC1=N2 (stereo not drawn) [Example 5] | 2.3
CN(C)c1ccc2c(c1Cl)CN1CC(=O)NC1=N2 [Example 22] | 1.2

Same assay, conditions: cAMP substrate

SMILES | IC50 [µM]
O=C1CN2Cc3cc(N4CCCCC4)ccc3N=C2N1 [7-Piperidino Compound, reference compound] | 0.15
Cl.O=C1CN2Cc3c(sc4c3CCCC4)N=C2N1 [DH-6471, reference compound] | 0.065
CC1CCCCN1c1ccc2c(c1)CN1CC(=O)NC1=N2 (stereo not drawn) [Example 5] | 0.35
CN(C)c1ccc2c(c1Cl)CN1CC(=O)NC1=N2 [Example 22] | 0.15
